From patent US9359341B2, “Aldehyde derivative of substitute oxazolidinones” (WANBURY LTD., priority 2012, dated 2016)

What was measured:
CYP1A2 = CYP1A2 (Homo sapiens (Human), UniProt P05177); assay: CYP inhibition assay; type: in vitro ADME; details: pooled human liver microsomes; extrapolated IC50 derived from 3 μM; read-out: IC50 (μM) of CYP isoforms, 1A2
Description: (§1) The ability of substances to inhibit CYP1A2, CYP2C9, CYP2D6, CYP2C19, CYP2J2 and CYP3A4 in humans was investigated with pooled human liver microsomes as enzyme source in the presence of standard substrates (see below) which form CYP-isoform-specific metabolites.
(§2) Standard incubation mixtures comprise NADPH and substrates in 100 mM phosphate buffer (pH 7.4) in a total volume of 200 μl. Test compound are dissolved in acetonitrile. Incubated with pooled human liver microsomes at 37° C. for a defined time. The reactions are stopped by adding 100 μl of acetonitrile in which a suitable internal standard is always present. Precipitated proteins are removed by centrifugation, and the supernatants analyzed by LC-MS/MS.

[1] = In vitro liver microsomal stability assay (mouse); type: in vitro ADME; details: mouse liver microsomes
Description: (§3) Liver microsomal stability assays are conducted at 1 mg per mL liver microsome protein with an NADPH in phosphate buffer (100 mM, pH 7.4). Test compounds (compound of formula B of the invention) are prepared as solutions in 20% methanol-water and added to the assay mixture (final assay concentration 1 μM) and incubated at 37° C. Aliquots (100.μ·L) are taken out at times 0, 15, and 30 minutes, and diluted with ice cold acetonitrile containing IS (200.mu·L) to stop the reactions. Samples are centrifuged at 10,000 RPM for 5 minutes to precipitate proteins. Supernatants are transferred to micro centrifuge tubes and stored at −20° C. for analysis of LC/MS/MS. The percent parent remaining of the test substance is calculated as Ratio of peak area at each time point to peak area ratio at zero min, multiplied by 100. The compound formula (B) is converted to Rivaroxaban in microsomal assay.

[2] = In vitro stability in rat plasma; type: in vitro ADME
Description: (§4) The final concentration of the test compound in the assay is 5 micromolar. […] C. The 100 microliters of aliquot at time point was removed and diluted with ice cold acetonitrile containing IS (200.mu·L) to stop the reactions. Samples are centrifuged at 10,000 RPM for 5 minutes to precipitate proteins. Supernatants are transferred to micro centrifuge tubes and stored at −20° C. for analysis of LC/MS/MS. The percent parent remaining of the test substance is calculated as ratio of peak area at each time point to peak area ratio at zero min, multiplied by 100.
(§5) API 4000, ESI Agilent 1100 column: Gemini Nx 100 mm×4.6 mm 5.1; column temperature: 30° C.; eluent A: 0.1% formic acid in water, eluent B: acetonitrile; gradient: 0-2.5 min 95% A, 5% B; 2.5-2.6 min 5% A, 95% B; 2.6-4.2 min 95% A, 5% B; flow rate: 0.8 ml/min; ESI. Q1:464.098, Q3:144.255

[3] = In vitro stability in human plasma; type: in vitro ADME
Description: as §4, §5

CYP2J2 = CYP2J2 (Homo sapiens (Human), UniProt P51589); assay: CYP inhibition assay; type: in vitro ADME; details: pooled human liver microsomes; extrapolated IC50 derived from 3 μM
Chain of CYP2J2 (P51589 whole entry): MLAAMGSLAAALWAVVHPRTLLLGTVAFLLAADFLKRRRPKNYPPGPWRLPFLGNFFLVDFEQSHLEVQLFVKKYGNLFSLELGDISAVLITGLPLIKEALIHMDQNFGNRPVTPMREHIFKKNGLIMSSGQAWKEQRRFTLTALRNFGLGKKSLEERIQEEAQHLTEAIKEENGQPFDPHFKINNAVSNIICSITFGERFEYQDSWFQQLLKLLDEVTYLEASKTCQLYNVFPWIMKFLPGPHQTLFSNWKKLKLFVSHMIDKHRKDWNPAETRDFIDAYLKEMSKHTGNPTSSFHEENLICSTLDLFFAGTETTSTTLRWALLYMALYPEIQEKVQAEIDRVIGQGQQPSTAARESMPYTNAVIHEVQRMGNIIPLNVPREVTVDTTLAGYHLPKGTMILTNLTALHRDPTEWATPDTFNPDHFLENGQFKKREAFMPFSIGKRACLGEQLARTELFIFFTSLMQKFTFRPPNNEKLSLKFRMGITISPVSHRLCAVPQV
Description: as §1
as §2, with “LC-MS/MS. The data represents the extrapolated IC50 (μM) concentration derived from 3 μM.” for “LC-MS/MS.”

CYP2D6 = CYP2D6 (Homo sapiens (Human), UniProt P10635); assay: CYP inhibition assay; type: in vitro ADME; details: pooled human liver microsomes; extrapolated IC50 derived from 3 μM; read-out: IC50 (μM) of CYP isoforms, 2D6
Chain of CYP2D6 (P10635 whole entry, canonical isoform): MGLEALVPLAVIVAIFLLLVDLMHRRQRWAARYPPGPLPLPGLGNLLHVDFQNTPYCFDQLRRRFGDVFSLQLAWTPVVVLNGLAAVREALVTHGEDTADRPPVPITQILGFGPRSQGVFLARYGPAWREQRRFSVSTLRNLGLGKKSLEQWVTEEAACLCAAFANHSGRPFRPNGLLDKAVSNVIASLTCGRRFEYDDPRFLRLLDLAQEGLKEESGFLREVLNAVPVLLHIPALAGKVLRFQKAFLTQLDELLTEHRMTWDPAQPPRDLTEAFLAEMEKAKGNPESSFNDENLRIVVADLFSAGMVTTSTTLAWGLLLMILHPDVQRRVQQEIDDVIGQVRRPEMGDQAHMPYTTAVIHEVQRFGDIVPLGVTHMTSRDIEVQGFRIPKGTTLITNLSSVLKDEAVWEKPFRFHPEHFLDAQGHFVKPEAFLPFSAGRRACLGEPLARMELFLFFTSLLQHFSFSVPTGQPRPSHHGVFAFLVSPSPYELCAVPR
Description: as §1
as §2, with “LC-MS/MS. The data represents the extrapolated IC50 (μM) concentration derived from 3 μM.” for “LC-MS/MS.”

CYP2C9 = CYP2C9 (Homo sapiens (Human), UniProt P11712); assay: CYP inhibition assay; type: in vitro ADME; details: pooled human liver microsomes; extrapolated IC50 derived from 3 μM; read-out: IC50 (μM) of CYP isoforms, 2C9
Chain of CYP2C9 (P11712 whole entry, canonical isoform): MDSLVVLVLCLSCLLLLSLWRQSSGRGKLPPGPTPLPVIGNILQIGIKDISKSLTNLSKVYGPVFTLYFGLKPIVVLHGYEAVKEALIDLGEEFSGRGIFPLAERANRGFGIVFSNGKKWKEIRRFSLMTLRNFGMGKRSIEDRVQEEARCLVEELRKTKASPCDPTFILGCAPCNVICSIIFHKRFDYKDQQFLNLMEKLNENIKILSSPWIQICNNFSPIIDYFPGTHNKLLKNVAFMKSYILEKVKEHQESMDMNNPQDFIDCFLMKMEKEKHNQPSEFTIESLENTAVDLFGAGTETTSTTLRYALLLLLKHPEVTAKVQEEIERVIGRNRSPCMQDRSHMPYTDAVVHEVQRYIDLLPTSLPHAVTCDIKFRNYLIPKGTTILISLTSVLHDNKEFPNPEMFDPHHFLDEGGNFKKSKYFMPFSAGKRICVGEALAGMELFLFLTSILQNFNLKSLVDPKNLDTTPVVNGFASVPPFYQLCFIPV
Description: as §1
as §2, with “LC-MS/MS. The data represents the extrapolated IC50 (μM) concentration derived from 3 μM.” for “LC-MS/MS.”

CYP2C19 = CYP2C19 (Homo sapiens (Human), UniProt P33261); assay: CYP inhibition assay; type: in vitro ADME; details: pooled human liver microsomes; extrapolated IC50 derived from 3 μM; read-out: IC50 (μM) of CYP isoforms, 2C19
Chain of CYP2C19 (P33261 whole entry, canonical isoform): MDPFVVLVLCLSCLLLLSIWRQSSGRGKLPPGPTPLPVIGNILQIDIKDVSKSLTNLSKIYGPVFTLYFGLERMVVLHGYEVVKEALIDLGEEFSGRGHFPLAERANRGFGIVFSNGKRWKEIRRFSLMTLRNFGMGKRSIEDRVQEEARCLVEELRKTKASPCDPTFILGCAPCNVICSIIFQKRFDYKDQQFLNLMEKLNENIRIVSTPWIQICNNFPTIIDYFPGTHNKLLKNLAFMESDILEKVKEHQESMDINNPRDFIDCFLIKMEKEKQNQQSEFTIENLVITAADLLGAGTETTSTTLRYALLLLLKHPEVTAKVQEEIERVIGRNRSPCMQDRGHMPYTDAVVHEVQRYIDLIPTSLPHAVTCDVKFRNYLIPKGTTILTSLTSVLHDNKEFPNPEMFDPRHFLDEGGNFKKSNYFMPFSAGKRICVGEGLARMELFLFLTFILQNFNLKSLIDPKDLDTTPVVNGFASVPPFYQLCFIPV
Description: as §1
as §2, with “LC-MS/MS. The data represents the extrapolated IC50 (μM) concentration derived from 3 μM.” for “LC-MS/MS.”

[4] = In vitro stability in mouse plasma; type: in vitro ADME
Description: as §4, §5

[5] = In vitro liver microsomal stability assay (human); type: in vitro ADME; details: human liver microsomes
Description: as §3

[6] = In vitro liver microsomal stability assay (rat); type: in vitro ADME; details: rat liver microsomes
Description: as §3

[7] = Intravenous and oral excretion profile in Wistar rats; type: in vivo; details: for Mean (ng) Urine: IV 1 mg/Kg, rivaroxaban in urine
Description: On the day before administration of the substance, a catheter for obtaining blood is implanted in the jugular vein of the experimental animals (male Wistar rats, body weight 200-250 g) under Isoflurane. anesthesia.
Urine and faeces are taken collected from metabolic cages over the course of 144 h after administration of the substance. The administration volume is 10 ml/kg for oral and 1 ml/kg for IV in male Wistar rats. Intravenous administration is via a formulation of 2% N—N Dimethyl acetamide/ethanol 10%/PEG400 (30%)/water for IV injection (58%) and via Tween80/PEG400/sterile water in the case of oral administration. Urine and faeces collection is 0-4, 4-8, 8-24, 24-48, 48-72, 72-96, 96-120, 120-144 in the case of IV and for oral administration.
Urine and faeces was processed and IS containing Acetonitrile is added to a defined urine/faeces and precipitated. After centrifugation, compound formula (B) and, where appropriate, known cleavage products of the compound formula (B) in the supernatant are determined quantitatively using a suitable LC/MS-MS method.
The measured urine and faeces concentrations are used to calculate parameters of the test substance and of the active ingredient compound (A) liberated there from, such as AUC and Cmax.
Acetonitrile containing IS is added to the study samples, calibration samples and QCs, and the protein is precipitated using acetonitrile. Vortexed and centrifuged and the supernatant is injected by LC-MS/MS (API 4000, AB Sciex). Chromatographic separation is carried out on an Shimadzu UFLC. The injection volume is 10 μl. The separation column used is a Phenomenex Gemini NX 4.6×5μ. 100 mm, adjusted to a temperature of 30° C. A binary mobile phase gradient at 800.mu·l/min is used (A: 0.1% formic acid in water, B: acetonitrile: API 4000, ESI Agilent 1100 column: Gemini Nx 100 mm×4.6 mm 5.μ; column temperature: 30° C.; eluent A: 0.1% formic acid in water, eluent B: acetonitrile; gradient: 0-2.5 min 95% A, 5% B; 2.5-2.6 min 5% A, 95% B; 2.6-4.2 min 95% A, 5% B; flow rate: 0.8 ml/min; ESI. Q1:464.098, Q3:144.255 The temperature of the Turbo V ion source is 500° C. The following MS instrument parameters are used: curtain gas 20 units, ion spray voltage 5 kV, gas 1 50 units gas 2 50 units, CAD gas 6 units. The substances are quantified by peak heights or areas using extracted ion chromatograms of specific MRM experiments.

Chain of CYP1A2 (P05177 whole entry, canonical isoform): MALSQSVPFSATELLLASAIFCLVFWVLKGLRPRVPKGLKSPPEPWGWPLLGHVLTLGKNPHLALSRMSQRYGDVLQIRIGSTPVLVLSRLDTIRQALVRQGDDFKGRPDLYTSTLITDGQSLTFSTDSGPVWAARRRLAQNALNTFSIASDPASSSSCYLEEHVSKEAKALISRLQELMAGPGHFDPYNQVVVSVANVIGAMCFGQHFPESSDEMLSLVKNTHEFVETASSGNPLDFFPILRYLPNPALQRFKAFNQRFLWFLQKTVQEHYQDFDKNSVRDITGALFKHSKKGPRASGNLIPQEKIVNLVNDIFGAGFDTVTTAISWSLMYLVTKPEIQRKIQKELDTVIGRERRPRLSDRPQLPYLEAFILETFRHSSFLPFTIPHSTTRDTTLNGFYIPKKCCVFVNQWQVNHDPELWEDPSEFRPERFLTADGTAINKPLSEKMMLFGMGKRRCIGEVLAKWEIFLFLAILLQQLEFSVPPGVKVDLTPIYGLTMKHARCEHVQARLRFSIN

For `O=C(NC[C@H]1CN(c2ccc(N3CCOCC3=O)cc2)C(=O)O1)c1ccc(Cl)s1` [Rivaroxaban, 5-chloro-N-({(5S)-2-oxo-3-[4-(3-oxomorpholin-4-yl)phenyl]-1,3-oxazolidin-5-yl}methyl)thiophene-2-carboxamide], the IC50 (CYP1A2) was 18.9 µM, the “% metabolised” value [1] was 99.98% and the “Observation (metabolism; for Test Product: of the formed rivaroxaban)” value (“Observation” for short) [1] was “High”. For the same compound, the “% Parent remaining(Mouse)” value ([1]; 0 min) was 100%, the “% Parent remaining(Mouse)” value ([1]; 15 min) was 0.03% and the “% Parent remaining(Mouse)” value ([1]; 30 min) was 0.02%. The “Conversion: unchanged, stable in plasma” value [2] was 88.4%,, the “% Parent remaining(rat)” value ([2]; 0 min) was 100% and the “% Parent remaining(rat)” value ([2]; 30 min) was 82.35%. For the same compound, the “% Parent remaining(rat)” value ([2]; 60 min) was 88.4%, the “Conversion: unchanged, stable in plasma” value [3] was 99.99%, and the “% Parent remaining (Human)” value ([3]; 0 min) was 100%. The “% Parent remaining (Human)” value ([3]; 30 min) was 100%, the “% Parent remaining (Human)” value ([3]; 60 min) was 99.68% and the “IC50 (μM) of CYP isoforms, 2J2” value (CYP2J2) was “No inhibition”. It also gave an IC50 (CYP2D6) of 13.2 µM, an IC50 (CYP2C9) of 16.7 µM and an IC50 (CYP2C19) of 13.2 µM. For the same compound, the “% Parent remaining(Mouse)” value ([4]; 0 min) was 100%, the “% Parent remaining(Mouse)” value ([4]; 30 min) was 100% and the “% Parent remaining(Mouse)” value ([4]; 60 min) was 100%. For the same compound, the “% metabolised” value [5] was 99.99%, the “Observation” value [5] was “High” and the “% Parent remaining (Human)” value ([5]; 0 min) was 100%. For the same compound, the “% Parent remaining (Human)” value ([5]; 15 min) was 0.01%, the “% Parent remaining (Human)” value ([5]; 30 min) was 0.01% and the “% metabolised” value [6] was 99.98%. For the same compound, the “Observation” value [6] was “High”, the “% Parent remaining(rat)” value ([6]; 0 min) was 100% and the “% Parent remaining(rat)” value ([6]; 15 min) was 0.01%. For the same compound, the “% Parent remaining(rat)” value ([6]; 30 min) was 0.02%, the “Mean (ng) Urine” value ([7]; 120 h) was “BLQ” and the “Mean (ng) Urine” value ([7]; 144 h) was “BLQ”. It also gave a concentration at 144 h ([7]; male, Wistar, rat, faeces, iv, 1 mg/kg) of 16.8 ng/g.
